From patent publication US12661410B2, “Compounds for targeted degradation of RET” (C4 Therapeutics, Inc., priority 2020, dated 2026)
Numbering of substitutions follows the chain as printed.

Experiments:
RET(KD: 658-1114 G810R) = biological target: T1, RET(KD: 658-1114 G810R) (Homo sapiens, UniProt P07949, G810R); experiment: HiBiT-Degradation, RET G810R degradation assay (Nano-Glo HiBiT Lytic), 293T.165 cells; format: cell-based; details: for Emax / DC50: 6.0 hours; for Emax: % remaining protein, read-out: 293T.165 RET(KD: 658-1114 G810R) 6.0 hours (Emax); for DC50: half-maximal degradation concentration, read-out: 293T.165 RET(KD: 658-1114 G810R) 6.0 hours (DC50)
T1 construct: 658-1114; expressed in transfected cells; host or cells: 293T.165 (293T cells, generated in-house)
T1 sequence (P07949 658-1114 G810R): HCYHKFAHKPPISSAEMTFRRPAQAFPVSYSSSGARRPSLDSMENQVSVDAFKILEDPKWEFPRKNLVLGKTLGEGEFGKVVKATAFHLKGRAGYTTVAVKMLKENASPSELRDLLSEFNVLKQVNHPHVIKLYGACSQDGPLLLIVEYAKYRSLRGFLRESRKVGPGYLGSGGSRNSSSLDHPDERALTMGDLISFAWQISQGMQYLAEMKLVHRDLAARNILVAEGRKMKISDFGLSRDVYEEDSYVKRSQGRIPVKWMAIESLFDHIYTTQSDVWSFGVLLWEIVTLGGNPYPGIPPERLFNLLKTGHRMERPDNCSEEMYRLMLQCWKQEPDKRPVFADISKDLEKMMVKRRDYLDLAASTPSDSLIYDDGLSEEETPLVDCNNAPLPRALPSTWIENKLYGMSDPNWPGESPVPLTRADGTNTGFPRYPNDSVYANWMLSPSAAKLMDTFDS
Procedure, shortened: (§1)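 Degradation quantified by HiBiT lytic luminescence in 293T cells expressing tagged WT or G810R RET kinase domain after 6 h dosing up to 10 μM; DC50 and Emax fitted.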

RET (658-1114) = biological target: T2, RET (658-1114) (Homo sapiens, UniProt P07949); experiment: HiBiT-Degradation, RET wild-type degradation assay (Nano-Glo HiBiT Lytic), 293T.144 cells; format: cell-based; details: for Emax / DC50: 6.0 hours; for Emax: % remaining protein, read-out: 293T.144 RET (658-1114) 6.0 hours (Emax); for DC50: half-maximal degradation concentration, read-out: 293T.144 RET (658-1114) 6.0 hours (DC50)
T2 construct: 658-1114; expressed in transfected cells; host or cells: 293T.144 (293T cells, generated in-house)
T2 sequence (P07949 658-1114): T1 sequence (P07949 658-1114 G810R) with R153G
Procedure, shortened: as §1

293T.165 RET(KD: 658-1114 G810R) 6.0 hours (IP) [nM] (RET(KD: 658-1114 G810R)) | Emax (RET(KD: 658-1114 G810R)) | DC50 (RET(KD: 658-1114 G810R)) | 293T.144 RET (658-1114) 6.0 hours (IP) [nM] (RET (658-1114)) | Emax (RET (658-1114)) | DC50 (RET (658-1114)) | Compound
++++ (<50 nM = ++++) | < 30% | < 50 nM | ++++ (<50 nM = ++++) | < 30% | < 50 nM | CCC1(C(=O)NC(C)(C)C)CCN(c2ccc(-c3nc(-c4cnn(C5CCN(C(=O)CC6(O)CCN(c7ccc(NC8CCC(=O)NC8=O)cc7Cl)CC6)CC5)c4)cn4ncc(C#N)c34)cn2)CC1 (stereo not drawn) [Compound 102, N-tert-butyl-1-[5-[6-[1-[1-[2-[1-[2-chloro-4-[(2,6-dioxo-3-piperidyl)amino]phenyl]-4-hydroxy-4-piperidyl]acetyl]-4-piperidyl]pyrazol-4-yl]-3-cyano-pyrazolo[1,5-a]pyrazin-4-yl]-2-pyridyl]-4-ethyl-piperidine-4-carboxamide]
++++ (<50 nM = ++++) | < 30% | < 50 nM | ++++ (<50 nM = ++++) | < 30% | < 50 nM | CCC1(C(=O)NC(C)C)CCN(c2ccc(-c3cc(-c4cnn([C@H]5CC[C@H](N6CCC(c7ccc(N[C@@H]8CCC(=O)NC8=O)cc7F)CC6)CC5)c4)cn4ncc(C#N)c34)cn2)CC1 (single isomer, unassigned) [Compound 195]

Compound | 293T.165 RET(KD: 658-1114 G810R) 6.0 hours (IP) [nM] (RET(KD: 658-1114 G810R)) | Emax (RET(KD: 658-1114 G810R)) | DC50 (RET(KD: 658-1114 G810R)) | 293T.144 RET (658-1114) 6.0 hours (IP) [nM] (RET (658-1114)) | Emax (RET (658-1114)) | DC50 (RET (658-1114))
N#Cc1cnn2cc(-c3cnn([C@H]4CC[C@H](N5CCN(c6c(F)cc(NC7CCC(=O)NC7=O)cc6F)CC5)CC4)c3)nc(-c3ccc(N4CC5CC(C4)N5CC4CCC(F)(F)CC4)nc3)c12 (stereo partly drawn) [Compound 214, 4-[6-[6-[(4,4-difluorocyclohexyl)methyl]-3,6-diazabicyclo[3.1.1]heptan-3-yl]-3-pyridyl]-6-[1-[4-[4-[4-[(2,6-dioxo-3-piperidyl)amino]-2,6-difluoro-phenyl]piperazin-1-yl]cyclohexyl]pyrazol-4-yl]pyrazolo[1,5-a]pyrazine-3-carbonitrile] | +++ (<100 nM = +++) | < 30% | < 100 nM | ++++ (<50 nM = ++++) | < 30% | < 50 nM
